Patent publication US20090023759A1, “Quinazoline Derivatives as Inhibitors of EGF and/or erbB2 Receptor Tyrosine Kinase” (priority 2005, published 2009)

What was measured:
erbB2 tyrosine kinase = biological target: T1, erbB2 tyrosine kinase (Homo sapiens, UniProt P04626); assay: Test (a) protein tyrosine kinase phosphorylation assay, erbB2; assay type: biochemical; conditions: ATP at Km concentration; read-out: IC50 Test (a): Inhibition of erbB2 tyrosine kinase protein phosphorylation
T1 construct: Recombinant intracellular fragments of EGFR, erbB2 and erbB4; made in house; host or cells: baculovirus/Sf21 insect cells (cleared lysate used)
T1 sequence (P04626 676-1255 limits assumed): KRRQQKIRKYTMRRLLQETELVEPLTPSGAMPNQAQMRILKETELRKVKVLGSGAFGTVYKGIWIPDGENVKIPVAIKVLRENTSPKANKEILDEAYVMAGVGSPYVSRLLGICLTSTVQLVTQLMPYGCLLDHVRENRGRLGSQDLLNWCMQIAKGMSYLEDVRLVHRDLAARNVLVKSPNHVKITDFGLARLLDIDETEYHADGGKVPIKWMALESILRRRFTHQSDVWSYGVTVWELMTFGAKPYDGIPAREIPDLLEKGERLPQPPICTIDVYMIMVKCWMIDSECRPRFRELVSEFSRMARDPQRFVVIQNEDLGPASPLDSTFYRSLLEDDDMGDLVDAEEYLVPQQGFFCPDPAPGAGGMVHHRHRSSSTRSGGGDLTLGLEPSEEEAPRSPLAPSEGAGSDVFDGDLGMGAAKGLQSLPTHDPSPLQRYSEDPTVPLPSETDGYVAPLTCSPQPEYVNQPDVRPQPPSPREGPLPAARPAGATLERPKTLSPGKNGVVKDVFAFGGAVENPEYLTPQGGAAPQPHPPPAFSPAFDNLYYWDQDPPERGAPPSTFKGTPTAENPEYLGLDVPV
Description: (§1) a) Protein Tyrosine Kinase phosphorylation Assays
(§2) This test measures the ability of a test compound to inhibit the phosphorylation of a tyrosine containing polypeptide substrate by EGFR, erbB2 and erbB4 tyrosine kinase enzyme.
(§3) Recombinant intracellular fragments of EGFR, erbB2 and erbB4 (accession numbers X00588, X03363 and L07868 respectively) were cloned and expressed in the baculovirus/Sf21 system. […]
(§4) Constitutive kinase activity of these recombinant proteins was determined by their ability to phosphorylate a synthetic peptide (made up of a random co-polymer of Glutamic Acid, Alanine and Tyrosine in the ratio of 6:3:1). […]
(§5) The immobilised phospho-peptide product of the reaction was detected by immunological methods. […] After further washing, HRP activity in each well of the plate was measured colorimetrically using 22′-Azino-di-[3-ethylbenzthiazoline sulfonate (6)]diammonium salt crystals (ABTS™ from Roche) as a substrate.
(§6) Quantification of colour development and thus enzyme activity was achieved by the measurement of absorbance at 405 nm on a Molecular Devices ThermoMax microplate reader. Kinase inhibition for a given compound was expressed as an IC50 value. […] The range of phosphorylation was calculated from the positive (vehicle plus ATP) and negative (vehicle minus ATP) control values.

[1] = biological target: T2, erbB2 in a MCF7 derived cell line (Clone 24 cells) (Homo sapiens, UniProt P04626); assay: Test (c) Clone 24 phospho-erbB2 cell assay; assay type: cell-based; conditions: 4 hours with compound, read-out: IC50 Test (c): Inhibition of erbB2 tyrosine kinase protein phosphorylation
T2 construct: a cell line that overexpresses full length wild type erbB2 protein; expressed in transfected cells
T2 sequence (P04626 23-1255): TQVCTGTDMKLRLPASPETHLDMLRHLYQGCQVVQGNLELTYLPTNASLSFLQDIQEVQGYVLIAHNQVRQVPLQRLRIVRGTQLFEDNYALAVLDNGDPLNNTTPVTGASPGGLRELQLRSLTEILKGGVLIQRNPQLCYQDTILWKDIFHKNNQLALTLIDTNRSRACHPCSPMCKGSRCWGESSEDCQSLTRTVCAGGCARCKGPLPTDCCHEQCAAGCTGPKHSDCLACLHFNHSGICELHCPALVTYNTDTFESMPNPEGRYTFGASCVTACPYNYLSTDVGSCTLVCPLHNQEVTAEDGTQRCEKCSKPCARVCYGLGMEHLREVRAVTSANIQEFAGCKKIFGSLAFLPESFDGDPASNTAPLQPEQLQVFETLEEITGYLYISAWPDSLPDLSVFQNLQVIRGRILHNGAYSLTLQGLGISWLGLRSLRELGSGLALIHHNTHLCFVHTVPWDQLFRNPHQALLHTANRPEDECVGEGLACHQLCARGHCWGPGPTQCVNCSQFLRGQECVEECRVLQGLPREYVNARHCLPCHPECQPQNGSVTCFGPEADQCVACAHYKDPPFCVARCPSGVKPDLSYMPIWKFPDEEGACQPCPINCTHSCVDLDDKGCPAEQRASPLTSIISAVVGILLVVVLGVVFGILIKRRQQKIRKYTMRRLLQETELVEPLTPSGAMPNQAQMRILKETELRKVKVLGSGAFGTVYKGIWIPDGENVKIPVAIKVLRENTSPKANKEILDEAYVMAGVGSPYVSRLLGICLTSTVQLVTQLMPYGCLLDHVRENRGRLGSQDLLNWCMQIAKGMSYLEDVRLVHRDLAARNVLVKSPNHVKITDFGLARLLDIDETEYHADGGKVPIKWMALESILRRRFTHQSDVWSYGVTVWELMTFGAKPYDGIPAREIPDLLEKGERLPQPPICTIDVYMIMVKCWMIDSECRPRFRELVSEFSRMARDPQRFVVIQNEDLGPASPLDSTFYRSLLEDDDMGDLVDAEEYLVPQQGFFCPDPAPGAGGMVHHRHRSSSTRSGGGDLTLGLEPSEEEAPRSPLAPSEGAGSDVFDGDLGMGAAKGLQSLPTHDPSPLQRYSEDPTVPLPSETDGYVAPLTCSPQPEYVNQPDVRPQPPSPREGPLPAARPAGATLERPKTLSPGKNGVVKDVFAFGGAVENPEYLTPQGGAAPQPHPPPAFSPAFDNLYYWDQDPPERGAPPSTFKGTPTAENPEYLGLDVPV
Description: c) Clone 24 Phospho-erbB2 Cell Assay
This immunofluorescence end point assay measures the ability of a test compound to inhibit the phosphorylation of erbB2 in a MCF7 (breast carcinoma) derived cell line which was generated by transfecting MCF7 cells with the full length erbB2 gene using standard methods to give a cell line that overexpresses full length wild type erbB2 protein (hereinafter ‘Clone 24’ cells).
Clone 24 cells were cultured in Growth Medium (phenol red free Dulbecco's modified Eagle's medium (DMEM) containing 10% foetal bovine serum, 2 mM glutamine and 1.2 mg/ml G418) in a 7.5% CO2 air incubator at 37° C. […] Cell density was measured using a haemocytometer and viability was calculated using Trypan Blue solution before being further diluted in Growth Medium and seeded at a density of 1×10^4 cells per well (in 100 μl) into clear bottomed 96 well plates (Packard, No. 6005182). […]
Immunostaining was performed at room temperature. […] Plates were analysed within six hours of completing the immunostaining.
The Fluorescence signal is each well was measured using an Acumen Explorer Instrument (Acumen Bioscience Ltd.), a plate reader that can be used to rapidly quantitate features of images generated by laser-scanning. […]

EGFR tyrosine kinase = biological target: T3, EGFR tyrosine kinase (Homo sapiens, UniProt P00533); assay: Test (a) protein tyrosine kinase phosphorylation assay, EGFR; assay type: biochemical; conditions: ATP at Km concentration; read-out: IC50 Test (a): Inhibition of EGFR tyrosine kinase protein phosphorylation
T3 construct: Recombinant intracellular fragments of EGFR, erbB2 and erbB4; made in house; host or cells: baculovirus/Sf21 insect cells (cleared lysate used)
T3 sequence (P00533 669-1210 limits assumed): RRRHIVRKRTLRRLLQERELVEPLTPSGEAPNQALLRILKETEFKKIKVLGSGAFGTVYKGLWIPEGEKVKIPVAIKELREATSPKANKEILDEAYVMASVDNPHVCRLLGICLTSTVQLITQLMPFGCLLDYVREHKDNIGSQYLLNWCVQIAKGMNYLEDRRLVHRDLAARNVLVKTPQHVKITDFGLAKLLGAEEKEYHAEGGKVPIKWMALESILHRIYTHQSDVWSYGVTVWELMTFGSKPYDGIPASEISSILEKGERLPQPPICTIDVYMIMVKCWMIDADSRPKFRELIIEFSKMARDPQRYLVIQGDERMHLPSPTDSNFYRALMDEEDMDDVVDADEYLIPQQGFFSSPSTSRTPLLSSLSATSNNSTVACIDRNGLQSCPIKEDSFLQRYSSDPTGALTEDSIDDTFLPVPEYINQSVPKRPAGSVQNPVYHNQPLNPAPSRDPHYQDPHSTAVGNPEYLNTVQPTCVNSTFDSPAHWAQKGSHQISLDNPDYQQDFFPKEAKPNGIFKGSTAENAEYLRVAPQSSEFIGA
Description: as §1, §2, §3, §4, §5, §6

| IC50 (erbB2 tyrosine kinase) | IC50 [1] | IC50 (EGFR tyrosine kinase) | SMILES |
| --- | --- | --- | --- |
| 71 nM | 1010 nM | 780 nM | C[C@H](CN(C)C(=O)CO)Oc1cccc2ncnc(Nc3ccc4c(ccn4Cc4ccccn4)c3)c12 [Example 1, 2-Hydroxy-N-methyl-N-{(2R)-2-[(4-{[1-(pyridin-2-ylmethyl)-1H-indol-5-yl]amino}quinazolin-5-yl)oxy]propyl}acetamide] |
| 5 nM | 2 nM | 63 nM | C[C@H](COc1cccc2ncnc(Nc3ccc4c(ccn4Cc4ccccn4)c3)c12)N(C)C(=O)CO [Example 2, 2-Hydroxy-N-methyl-N-{(R)-1-methyl-2-[4-(1-pyridin-2-ylmethyl-1H-indol-5-ylamino)-quinazolin-5-yloxy]-ethyl}-acetamide] |
